Data published in ChEMBL document CHEMBL1129891, “Synthesis and cytotoxic activity of alkylidene- and alkyl-substituted camptothecins” (Bioorg Med Chem Lett, 1997).

Key:
L1210 = assay: Concentration required to inhibit 50% of cell growth in L1210 murine leukemia cell line after 48 hr continuous treatment; type: functional, cell-based; conditions: Mus musculus, L1210, 48 h
DNA topoisomerase 1 = target: T1, DNA topoisomerase 1 (Homo sapiens, UniProt P11387); assay: Concentration required to inhibit 50% relaxation of 250 ng of SV40 DNA obtained with 0.5 I.U topoisomerase I at 37 degrees C for 30 min
T1 sequence (P11387 whole entry): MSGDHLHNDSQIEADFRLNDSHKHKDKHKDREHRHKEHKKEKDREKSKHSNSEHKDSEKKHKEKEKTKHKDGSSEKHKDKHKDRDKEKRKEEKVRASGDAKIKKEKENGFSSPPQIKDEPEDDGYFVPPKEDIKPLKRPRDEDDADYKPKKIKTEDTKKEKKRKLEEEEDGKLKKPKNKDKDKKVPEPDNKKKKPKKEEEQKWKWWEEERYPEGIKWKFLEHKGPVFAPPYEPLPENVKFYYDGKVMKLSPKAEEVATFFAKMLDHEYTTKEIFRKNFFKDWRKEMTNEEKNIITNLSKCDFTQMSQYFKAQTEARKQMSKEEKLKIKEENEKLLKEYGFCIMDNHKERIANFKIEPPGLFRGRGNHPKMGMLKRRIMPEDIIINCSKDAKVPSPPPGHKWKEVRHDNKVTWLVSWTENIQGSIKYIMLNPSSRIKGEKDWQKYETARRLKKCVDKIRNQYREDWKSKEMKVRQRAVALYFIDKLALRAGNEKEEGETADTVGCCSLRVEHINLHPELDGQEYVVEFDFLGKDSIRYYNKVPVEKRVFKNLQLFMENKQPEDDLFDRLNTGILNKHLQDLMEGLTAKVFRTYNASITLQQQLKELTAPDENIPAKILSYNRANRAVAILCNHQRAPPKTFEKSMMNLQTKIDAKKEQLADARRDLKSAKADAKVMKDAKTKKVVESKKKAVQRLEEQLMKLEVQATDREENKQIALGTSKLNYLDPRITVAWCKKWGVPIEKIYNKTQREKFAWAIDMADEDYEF

Structure (SMILES)	IC50 (L1210) [nM]	IC50 (DNA topoisomerase 1) [nM]
CC[C@@]1(O)C(=O)OCc2c1cc1n(c2=O)Cc2cc3cc(/C=C/C(=O)OC)ccc3nc2-1	62.3	> 100000
CC[C@@]1(O)C(=O)OCc2c1cc1n(c2=O)Cc2cc3c(CC(NC(C)=O)C(=O)OC)cccc3nc2-1 (some centres undefined)	183	11300
CC[C@@]1(O)C(=O)OCc2c1cc1n(c2=O)Cc2cc3c(/C=C(\NC(C)=O)C(=O)OC)cccc3nc2-1	1180	31900
CC[C@@]1(O)C(=O)OCc2c1cc1n(c2=O)Cc2cc3c(CCc4ccccc4)cccc3nc2-1	16.3	> 100000
C=Cc1cccc2nc3c(cc12)Cn1c-3cc2c(c1=O)COC(=O)[C@]2(O)CC	7.5	4200
CC[C@@]1(O)C(=O)OCc2c1cc1n(c2=O)Cc2cc3c(CCC(=O)OC)cccc3nc2-1	6.2	41800
CC[C@@]1(O)C(=O)OCc2c1cc1n(c2=O)Cc2cc3c(/C=C/c4ccccc4)cccc3nc2-1	15.8	> 100000
CC[C@@]1(O)C(=O)OCc2c1cc1n(c2=O)Cc2cc3c(/C=C/C(=O)OC)cccc3nc2-1	7.6	6700
CC[C@@]1(O)C(=O)OCc2c1cc1n(c2=O)Cc2cc3c(/C=C/C(N)=O)cccc3nc2-1	121	3200
CC[C@@]1(O)C(=O)OCc2c1cc1n(c2=O)Cc2cc3c(N)cccc3nc2-1 [9-AMINOCAMPTOTHECIN]		1800
